Data on 1 compound can be found in patent US20230373984A1, “CRYSTALLINE FORM I OF MELANOCORTIN RECEPTOR AGONIST COMPOUND AND PREPARATION METHOD THEREFOR” (LG CHEM, LTD., priority 2020, published 2023).

Data set [1] in a line: Stability assessment: storage for 4 weeks, HPLC analysis. The note with it: for Stability assessment (HPLC), Open ACC: open state, accelerated condition (40° C., 75% RH); for Stability assessment (HPLC), Closed STR: sealed state, harsh condition, oven at 80° C. Type of data set: physicochemical. Here is the method:
About 10-30 mg of the sample was stored for 4 weeks in an open state under the accelerated condition (40° C., 75% RH) or in a sealed state under the harsh condition in an oven at 80° C.

Test in data set [2]: as above
Type of data set: physicochemical. The note with it: stored at room temperature.

Entries after “also recorded” stand apart in the source; their conditions may differ.

In the case of `CC(C)C(=O)N([C@H]1C[C@@H](C(=O)N2CCOCC2)N(C(=O)[C@@H]2CN(C(C)(C)C)C[C@H]2c2ccc(Cl)cc2)C1)[C@H]1CC[C@@H](C)CC1.Cl` [Example 1, N-((3S, 5S)-1-((3S,4R)-1-(Tert-Butyl)-4-(4-Chlorophenyl) Pyrrolidine-3-Carbonyl)-5-(Morpholine-4-Carbonyl) Pyrrolidin-3-yl)-N-((1s,4R)-4-Methylcyclohexyl) Isobutyramide Hydrochloride], the “Stability assessment (HPLC)” value in data set [1] (Initial, in % (unit assumed)) is reported as 98.72. Moreover, the “chemical stability (result in words)” value in data set [1] (accelerated condition (40° C., 75% RH) and harsh condition (80° C.), 4 weeks, listed as crystalline form I, Hydrochloride) was “showed chemical stability for 4 weeks; also recorded: exhibited chemical stability for 4 weeks”. In addition, the “Stability assessment (HPLC), Open ACC” value was 98.22 in data set [1] (Day 3, in % (unit assumed)); 98.45 in data set [1] (Week 1, in % (unit assumed)); 98.40 in data set [1] (Week 2, in % (unit assumed)); 98.32 in data set [1] (Week 4, in % (unit assumed)). Moreover, the “Stability assessment (HPLC), Closed STR” value in data set [1] (Day 3, in % (unit assumed)) is reported as 97.35; in data set [1] (Week 1, in % (unit assumed)), 97.28; in data set [1] (Week 2, in % (unit assumed)), 97.82; in data set [1] (Week 4, in % (unit assumed)), 97.30. Besides, the “Stability assessment (HPLC), Closed RT” value was 97.99 in data set [2] (Week 2, in % (unit assumed)) and 97.74 in data set [2] (Week 4, in % (unit assumed)).
